Values quoted from earlier work, collected in US20090145189A1, “Composition and a manufacturing method thereof” (priority 2007, published 2009).

Experiments:
[1] = concentrations above 40 wt %, such as 50 wt %

| Structure (SMILES) | Water solubility | Viscosity [1] |
| --- | --- | --- |
| O=C(O)CN(CCN(CC(=O)O)CC(=O)O)CCN(CC(=O)O)CC(=O)O [DTPA, diethylenetriamine-N,N,N-penta-acetic acid] | low water solubility |  |
| O=C([O-])CN(CCN(CC(=O)[O-])CC(=O)[O-])CCN(CC(=O)[O-])CC(=O)[O-].[Na+].[Na+].[Na+].[Na+].[Na+] [DTPANa5, penta sodium salt of diethylenetriamine-N,N,N-penta-acetic acid] |  | too viscous to allow convenient handling |
